Assay results taken from patent publication US9599759B2, “Patterned polarizing film and its production process” (Sumitomo Chemical Company, Limited, priority 2014, dated 2017).

Experiment: Saturated solubility at 23° C. of each dichroic dye in certain solvents (LC quantification)
Assay type: physicochemical
Settings: 24 hours agitation; for saturated solubility in ethanol: solvent ethanol; for saturated solubility in ethyl acetate: solvent ethyl acetate; for saturated solubility in isopropyl alcohol: solvent isopropyl alcohol; for saturated solubility in methanol: solvent methanol; for saturated solubility in propylene glycol 1-monomethyl ether 2-acetate: solvent propylene glycol 1-monomethyl ether 2-acetate; for saturated solubility in propylene glycol 1-monomethyl ether: solvent propylene glycol 1-monomethyl ether; for saturated solubility in tetrahydrofuran: solvent tetrahydrofuran
Protocol: [Measurement Method of Saturated Solubility]
This solution was sampled, and was dissolved together with 5 ml of a standard liquid in tetrahydrofuran to prepare a measurement solution. […] The standard liquid was prepared from 10 ml of hexylbenzene and 1000 ml of acetonitrile.
The liquid chromatograph (LC) measurement was carried out in the following condition.
Used column: KinetexC18, 2.6 μm, 100 mm×4.6 mm diameter
Column temperature: 40° C.
• (A liquid) 0.1%(v/v)—TFA/water • (B liquid) 0.1%(v/v)—TFA/acetonitrile 500/THF 50% • Gradient condition 0 min A liquid 60%, B liquid 40% • 30 min A liquid 0%, B liquid 100% • 35 min A liquid 0%, B liquid 100% • 35.1 min A liquid 60%, B liquid 40% • 45 min STOP TOTAL 45 min • Flow volume: 1.0 mL/min • Injection amount: 5 μL • Detection method: UV (254 nm)

Which “saturated solubility in ethanol” value does the source give for CCCCc1ccc(N=Nc2ccc(N=Nc3ccc(N4CCCC4)cc3)cc2)cc1 [dichroic dye 1] here?
Its value is 0.003 % by mass.

What about the “saturated solubility in ethyl acetate” value of the same compound?
The value was 0.059 % by mass.

And the “saturated solubility in isopropyl alcohol” value?
The value was 0.002 % by mass.

And the “saturated solubility in methanol” value?
The value was 0.001 % by mass.

And the “saturated solubility in propylene glycol 1-monomethyl ether 2-acetate” value?
The value was 0.077 % by mass.

And the “saturated solubility in propylene glycol 1-monomethyl ether” value?
Its value is 0.028 % by mass.

And the “saturated solubility in tetrahydrofuran” value?
The value was 0.33 % by mass.

What does the source list for CCCCc1ccc(N=Nc2ccc(N=Nc3ccc(OCCC)cc3)cc2)cc1 [dichroic dye 2]?
saturated solubility in ethanol: 0.001 % by mass; saturated solubility in ethyl acetate: 1.3 % by mass; saturated solubility in isopropyl alcohol: 0.043 % by mass; saturated solubility in methanol: 0.001 % by mass; saturated solubility in propylene glycol 1-monomethyl ether 2-acetate: 0.89 % by mass; saturated solubility in propylene glycol 1-monomethyl ether: 0.336 % by mass; saturated solubility in tetrahydrofuran: 4.5 % by mass
